Measurements from US6803466B1, “HIV/FIV protease inhibitors having a small P3 residue” (The Scripps Research Institute, priority 1997, dated 2004).

Experiments:
HIV PR G48V = target: T1, HIV PR G48V (Human immunodeficiency virus type 1 group M subtype B, UniProt P03366, G548V); details: licensed drugs, literature; cited from earlier work
T1 construct: drug-resistant mutant HIV PRs G48V and V82F

HIV PR V82F = target: T2, HIV PR V82F (Human immunodeficiency virus type 1 group M subtype B, UniProt P03366, V582F); details: licensed drugs, literature; cited from earlier work
T2 construct: drug-resistant mutant HIV PRs G48V and V82F

FIV PR [1] = target: T3, FIV PR (Feline immunodeficiency virus, UniProt P16088, C122K/G43I/N93T); experiment: Inhibition of FIV PR (Ki, IC50); type: biochemical
T3 construct: made in house; host or cells: E. coli BL21(DE3)
Method: The solution was mixed and incubated for 10 minutes at 37° C. and the reaction quenched by addition of 8M guanidine HCl solution containing 0.2 M sodium acetate at pH 4.2 (100 μL). The cleavage products and substrate were separated by reverse phase HPLC. Absorbance was measured at 215 nm, peak areas were determined and percent conversion to product was calculated using relative peak areas. […] IC50 was determined as the inhibitor concentration at 50% inhibition. […] ([S]=substrate concentration in nmol). The data used was generated similarly to that for Ki with the following modifications. The substrate concentrations used were 560, 448, 336, 224, 111 and 56 μM, in the absence of inhibitor.
(§1) Kinetic determinations for both HIV PR and FIV PRs were performed at 37° C. at pH 5.25 in duplicate using F-2000 fluorescence spectrophotometer (Hitachi).
(§2) For FIV PRs, the kinetic data were determined under the similar reaction conditions as for HIV PR.

FIV PR [2] = target: T3, FIV PR; details: relative to HIV PR; Slee et al.; cited from earlier work
HIV PR = target: T4, HIV PR (Human immunodeficiency virus type 1 group M subtype B, UniProt P03366, Q507K); experiment: Inhibition of HIV PR (Ki, IC50), fluorogenic substrate; type: biochemical
T4 construct: initiator Met plus the eight Pol residues preceding PR (N-terminal extension of the expressed precursor) (N); made in house; host or cells: E. coli BL21.DE3, pLysS
Method: The solution was mixed and incubated over 5 minutes during which time the rate of substrate cleavage was monitored by continuously recording the change in fluorescence of the assay solution. An excitation filter of 325 nm, and an emission filter of 420 nm were used.
Determination of Ki for HIV protease was performed similarly with the following modifications. The substrate concentrations used were 57, 43, 28 and 14 μM. All other concentrations were as above. The curve fit for the data was determined and the subsequent Ki derived using a computer program based on the equation of Morrison et. al. BioChim. Biophys. ACTA 1969,185, 269, for tight binding inhibitors.
as §1
For HIV PR, the KM and Vmax values for the fluorogenic peptide substrate 2-aminobenzoyl (Abz)-Thr-Ile-Nle-Phe-(p-NO2)-Gln-Arg-NH2 (SEQ ID NO: 3) Toth et al Int. J. Peptide Res. 36, 544-550 were determined by measuring the initial rate of hydrolysis at different substrate concentrations (5.0, 7.5, 10, 20, 35, 50, 100, and 200 μM) by monitoring the change in fluorescence at an excitation wavelength of 325 nm and an emission wavelength of 420 nm, and fitting the obtained data to the Michaelis-Menten equation using the Grafit program (version 3.0, Erithacus Software Ltd., UK). Assays were run in 0.1 M MES buffer, containing 5% (v/v) glycerol, and 5% (v/v) DMSO (200 μl final volume). The enzyme concentration (30 μg/ml) which gave ideal progress curve was used for assays, but the dimeric active HIV PR concentration was not accurately determined. […] The curve fit the data was determined, and the subsequent Ki was derived using the Grafit program.

[3] = test system: FIV-PPR in feline T-cells (104-C1); experiment: Ex vivo inhibitor analysis against FIV, pelletable reverse transcriptase in culture supernatant; type: cell-based, feline immunodeficiency virus
Method: For FIV, the assays were performed in FIV-infected feline T-cells which were cultured in the presence of compound 1200 at different concentrations over the course of 1 month. Each data in FIG. 14 represents the amount of pelletable FIV reverse transcriptase in the culture supernatant. […] After one month, the drug-treated cultures were split and replated with and without compound 1200.
The lymphocytic cell line 104-C1 (provided by C. Grant) was used as the target for infection. Cells were cultured in RPMI-1640 media supplemented with 10% FBS, 200 μM L-Glutamine, 1×MEM-Vitamins, 100 μM Sodium Pyruvate, 1×Non-Essential Amino Acids, 5.5×10−5M b-ME, 50 μg/ml Gentamicin, 50 U/ml human recombinant Interleukin-2 (provided by Hoffmann-LaRoche) and 7.5 μg/ml Concanavalin-A. For inhibitor assessment, 5×10^6 cells were infected with FIV-PPR (4×105 RT units) in 1 mL culture for 2 hr at 37° C. […] The cells were then washed with Hanks-buffered saline solution (HBSS) and resuspended in 10 ml of complete medium. The compound 1200 (10 mg/mL in DMSO) was then added to final concentrations of 0.1, 0.5, 1, and 5 μg/ml in duplicate. The cells were then incubated at 37° C. The culture supernatants were monitored for the presence of pelletable reverse transcriptase activity at weekly intervals, as follows. Cell-free culture supernatants (4 ml) were centrifuged at 60K for 30 min and the pellets were resuspended in 100 μl of lysis buffer containing 40 mM TrisHCl (pH 8.1), 360 mM NaCl, 20 mM DTT and 0.2% NP40. Twenty five μl of lysate was added to 25 μl of a mixture containing polyrA-pdT (Pharmacia, Piscataway, N.J.), MgCl2, and 3H-labeled deoxythymidine 5′-triphosphate (DuPont NEN, Boston, Mass.), and incubated for 1 hr at 37° C. The mixture was spotted on DE81 paper, air-dried, fixed in 0.1 M sodium pyrophosphate, washed three times in 0.3 M ammonium formate, and an additional time in 95% ethanol. The paper was then dried and counted on a scintillation counter.
Cells were split 1:5 after the second, third, and fourth time points and fresh inhibitor was added at the appropriate concentration at each of these intervals. The data were expressed as values +/−standard deviation of the mean.

[4] = test system: mutant FIV PRs (FIV(V59I), FIV(Q99V)); experiment: Inhibition of mutant FIV PRs; type: biochemical, feline immunodeficiency virus
Method: The inhibitory effects of each inhibitor were evaluated against HIV and FIV PRs along with two mutant FIV PRs that contain amino acid substitutions corresponding to those in HIV PR at homologous sites.
as §2
Mutant FIV PRs were prepared that contained substitutions of HIV residues noted to be associated with drug resistance in HIV (16) at equivalent sites in the three dimensional structure.

| Compound | higher IC50 / decreased potency, G48V mutant compared to wild-type HIV PR (HIV PR G48V) | higher IC50 / less sensitive, V82F mutant compared to wild-type HIV PR (HIV PR V82F) | Ki (FIV PR [1]) | inhibition of FIV PR (in words) (FIV PR [1]) | Ki (HIV PR) | further results |
| --- | --- | --- | --- | --- | --- | --- |
| CC(C)c1nc(CN(C)C(=O)N[C@H](C(=O)N[C@@H](Cc2ccccc2)C[C@H](O)[C@H](Cc2ccccc2)NC(=O)OCc2cncs2)C(C)C)cs1 [ABT-538] | 17 fold | 90 fold | – | – | – | – |
| Cc1c(O)cccc1C(=O)N[C@@H](CSc1ccccc1)[C@H](O)CN1C[C@H]2CCCC[C@H]2C[C@H]1C(=O)NC(C)(C)C [AG-1343] | – | 15 fold | – | – | – | – |
| CC(C)(C)NC(=O)[C@@H]1C[C@@H]2CCCC[C@@H]2CN1C[C@@H](O)[C@H](Cc1ccccc1)NC(=O)[C@H](CC(N)=O)NC(=O)c1ccc2ccccc2n1 [RO31-8959, reference compound] | 27 fold | – | 76000 nM | total loss of potency | 1.6 nM | less efficient inhibitor of FIV PR, factor (FIV PR [2]): ≥ 100 |
| CC(C)[C@H](NC(=O)[C@H](CO)NC(=O)OCc1ccccc1)C(=O)N[C@@H](Cc1ccccc1)[C@@H](O)[C@H](O)[C@H](Cc1ccccc1)NC(=O)[C@@H](NC(=O)[C@H](CO)NC(=O)OCc1ccccc1)C(C)C [Compound 12] | – | – | 32 nM | effective inhibitors | 0.58 nM | prevention of FIV infection in tissue culture (in words) [3]: not as effective as 1b; inhibition of HIV PR (in words) (HIV PR): effective inhibitors; higher potency against HIV PR compared to 1b (HIV PR; versus 1b): 3 fold |
| CC(C)(C)NC(=O)[C@@H]1CN(Cc2cccnc2)CCN1C[C@@H](O)C[C@@H](Cc1ccccc1)C(=O)N[C@H]1c2ccccc2C[C@H]1O [MK-639] | – | 7 fold | – | – | – | – |
| CC(C)[C@H](NC(=O)[C@H](Cc1ccccc1)NC(=O)OCc1ccccc1)C(=O)N[C@@H](Cc1ccccc1)[C@@H](O)[C@H](O)[C@H](Cc1ccccc1)NC(=O)[C@@H](NC(=O)[C@H](Cc1ccccc1)NC(=O)OCc1ccccc1)C(C)C [Compound 10b] | – | – | 7000 nM | – | – | lower potency than 1b against FIV PR (FIV PR [1]; versus 1b): 170 fold; lower potency compared to 1100, FIV PR (FIV PR [1]; versus 1100): 45 fold; Ki higher / potency lower than 1200, FIV PR (FIV PR [1]; versus 1200): 170 fold; activity against mutant FIV PRs compared to wild type FIV PR (in words) [4]: very similar activities |
